Measured values as given in PMC7473970, “Preformulation Studies of a Stable PTEN-PDZ Lipopeptide Able to Cross an In Vitro Blood-Brain-Barrier Model as a Potential Therapy for Alzheimer’s Disease” (Pharmaceutical Research, 2020).
Like-named read-outs stand apart in the source and are kept apart here. Residues, ends and D or L forms follow the SMILES beside them.

How the values were obtained:
[1] = In vitro stability in 50% liver homogenate; type: in vitro ADME, mouse; conditions: 37°C; for k: 50% w/v CD-1 mouse liver homogenate in PBS pH 7.4, 120 μL of 5 mM DMSO stock in 1080 μL, 100 rpm, 0-1440 min; for k / t1/2 (h) / t1/2 (min): HPLC-UV 220 nm, one phase decay, least square fit, n = 3; for t1/2 (h) / t1/2 (min): 50% w/v mouse liver homogenate in PBS pH 7.4
Protocol: (§1) The samples were analyzed at 40°C on a Phenomenex Lichrosorb RP8 C8 column (4.0 mm × 250 mm, 5 μm), using the gradient elution method on an Agilent HPLC system (Agilent Technologies, Cheadle, UK) equipped with an 1100 series degasser, quaternary pump, autosampler, and column heater, and attached to an Agilent 1200 series PDA detector and a 1250 series fluorescent detector. The flow rate was set at 1.2 mL min^-1, and the injection volume was set at 40 μL, while detection was performed at 220 nm. The mobile phase was a mixture of mobile phase A (0.1% TFA in water) and phase B (0.08% TFA in acetonitrile), and in the first 5 min, the mobile phase was an 8:2 ratio of A:B (v/v) and from 5 to 15 min the percentage of B was raised from 8:2 to 1:9 (v/v). Linear calibration curves were constructed for both peptides between 0.1–100 μg.mL^−1. The retention time for the human Lau–PTEN-PDZ, mouse Lau–PTEN-PDZ, human Myr–PTEN-PDZ, and mouse Myr–PTEN-PDZ was 12.03, 11.60, 13.68, and 13.91, respectively.
(§2) The liver and brain of the mice were excised from […] CD-1 male mice (7 weeks-old: Charles River Laboratories) sacrificed with CO2, and the tissue was frozen immediately with liquid nitrogen prior to storage at −80°C. The liver and brain tissue were thawed and homogenized on ice in PBS (2 mL/g of tissue) using a glass 3 mL tissue homogenizer (20 strokes per sample), and the liver and brain homogenates were centrifuged (Heraeus Multifuge 3sf, Fisher Scientific, Basingstoke, UK) at 4300 g for 60 min at 4°C and at 3000 g for 20 min at 4°C, respectively. The supernatant was stored at −80°C, diluted 1:1 (v/v) with PBS (1x, pH 7.4), and used in stability studies. Peptides stocks (5 mM in DMSO) were prepared and maintained at −20°C prior to performing stability studies. These stock solutions (120 μL) were added to the diluted pre-warmed (37°C) liver or brain homogenate (50% v/v, 1080 μL) with agitation (100 rpm: Grant Aqua Waterbath), and samples (80 μL) were taken at 0, 5, 10, 15, 30, 45, 60, 90, 120, 180, 240, 360 and 1440 min, and diluted with ice-cold acetonitrile (80 μL). Samples were vortexed and left at −80°C at least overnight to allow for maximum protein precipitation, the samples were vortexed again for 15 min, centrifuged and the supernatant was analyzed by HPLC as described above.
(§3) The total protein concentration in the homogenates was determined using the Bradford protein assay ([7],[15]) and BSA as a standard. Ten stock solutions of BSA were prepared in PBS between 0.1–1 mg mL^−1, and 40 μL of each of the diluted stocks were added to 1.2 mL of Bradford reagent and incubated at room temperature for 5 min. The absorbance was recorded at 595 nm using a Multiskan GO spectrophotometer and the SkanIt software (Thermo Scientific, Paisley, UK). A linear calibration curve was obtained in this range that was used to extrapolate the protein content of 1:100 v/v stock solutions of 50% mouse plasma, liver, and brain homogenates diluted in PBS.

[2] = In vitro stability in 50% brain homogenate; type: in vitro ADME, mouse; conditions: 37°C, HPLC-UV 220 nm, one phase decay, least square fit, n = 3; for k: 50% w/v CD-1 mouse brain homogenate in PBS pH 7.4, 120 μL of 5 mM DMSO stock in 1080 μL, 100 rpm, 0-1440 min; for t1/2 (h) / t1/2 (min): 50% w/v mouse brain homogenate in PBS pH 7.4
Protocol: as §1, §2, §3

[3] = Permeability across in vitro 2D human blood-brain barrier model; type: in vitro ADME
[4] = In vitro stability in 50% v/v mouse plasma; type: in vitro ADME; conditions: 37°C, HPLC-UV 220 nm, one phase decay, least square fit, n = 3; for k: 50% v/v CD-1 mouse plasma (K3 EDTA) in PBS, 120 μL of 5 mM DMSO stock in 1080 μL, 100 rpm, 0-1440 min
Protocol: CD-1 male mice (7 weeks old: Charles River Laboratories) were sacrificed with CO2, and blood was collected in K3E EDTA spray-coated vacutainers and kept on ice prior to centrifugation at 3000 rpm for 15 min at 4°C (Heraeus Multifuge 3sf). Mouse plasma samples were stored at −80°C before use in stability studies. Study was approved by the University of Portsmouth Animal Welfare and Ethical Review Body (UoP AWERB body, 817).
For testing, the plasma was diluted (1:1) in PBS without phenol and pre-warmed to 37°C. Peptides stocks (5 mM in DMSO) were prepared and maintained at −20°C before performing the stability studies. Peptide stock solutions (120 μL) were added to pre-warmed diluted plasma (50% v/v, 1080 μL) and maintained at 37°C with agitation (100 rpm: Grant Aqua Waterbath, Royston, UK). Samples (80 μL) were taken at 0, 3, 6,9, 15, 30, 45, 60, 90, 120, 180, 240, 360 and 1440 min, diluted with ice-cold acetonitrile (80 μL), vortexed and left in −80°C at least overnight to favor maximal protein precipitation. The samples were then vortexed again for 15 min (SciQuip microplate shaker, Shropshire, UK), centrifuged in a Thermo Sci Jouan B4i Centrifuge (Hemel Hampstead, UK) and the supernatant was transferred to an HPLC vial (200 μL).
as §1

[5] = In vitro stability in simulated intestinal fluid (mouse intestinal wash); type: in vitro ADME; conditions: 120 μL of 5 mM DMSO stock in 1080 μL, 37°C, 0-1440 min, HPLC-UV 220 nm, n = 3; for k: Simulated intestinal fluid = undiluted pooled CD-1 mouse duodenum/ileum wash in 50 mM phosphate buffer pH 6.63, 100 rpm, one phase decay, least square fit; for t1/2 (h) / t1/2 (min): Simulated intestinal fluid = undiluted pooled CD-1 mouse duodenum/ileum wash, phosphate buffer pH 6.63, one phase decay fit
Protocol: as §1
The duodenum and ileum were excised from 10 non-fasted CD-1 male mice (7 weeks-old: Charles River Laboratories) that were sacrificed with CO2. Each duodenum and ileum were washed with 6 ml of phosphate buffer (50 mM, pH 6.63), and all the washes were pooled prior to centrifugation at 4000 rpm for 15 min at 4°C (Heraeus Multifuge 3sf) ([7],[15]). The intestinal wash was removed and frozen at −80°C prior to using it in stability studies without further dilution. Peptides stocks (5 mM in DMSO) were prepared and maintained at −20°C prior to performing stability studies. A stock peptide solution (120 μL) was added to the diluted pre-warmed (37°C) intestinal wash (1080 μL) with agitation at 100 rpm (Grant Aqua Waterbath), and samples (80 μL) were taken at 0, 15, 30, 45, 60, 90, 120, 180, 240, 360 and 1440 min, and diluted with ice-cold glacial acetic acid (17.5 M): acetonitrile (5:95 v/v, 80 μL) to quench the enzyme activity. Samples were vortexed and left in −80°C at least overnight to maximize protein precipitation, and after vortexing again for 15 min and centrifuging, the supernatant was analyzed by HPLC as described above.

[6] = read-out: Papp0-4h, Experiment 2
[7] = 50% w/v mouse liver homogenate, two phase decay fit, fast phase
[8] = 50% w/v mouse liver homogenate, two phase decay fit, slow phase

k [1] [h⁻¹] | t1/2 (h) [1] [h] | t1/2 (min) [1] [min] | k [2] [h⁻¹] | t1/2 (h) [2] [h] | t1/2 (min) [2] [min] | Papp A→B at 100 μM [3, 6] [×10⁻⁶ cm/s] | k [4] [h⁻¹] | t1/2 (h) ([4]; 50% v/v mouse plasma in PBS) | t1/2 (min) ([4]; 50% v/v mouse plasma in PBS) | k [5] [h⁻¹] | t1/2 (h) [5] [h] | t1/2 (min) [5] [min] | SMILES | other results
1.15 | 0.60 | 36.28 | 1.90 | 0.36 | 21.87 | 5.57 ± 0.29 | 4.60 | 0.15 | 9.05 | 0.23 | 2.96 | 177.96 | CCCCCCCCCCCC(=O)N[C@@H](CCC(N)=O)C(=O)N[C@@H](Cc1c[nH]cn1)C(=O)N[C@H](C(=O)N[C@@H](CCC(N)=O)C(=O)N[C@H](C(=O)N[C@H](C(=O)N[C@@H](CCCCN)C(=O)N[C@H](C(=O)O)C(C)C)[C@@H](C)O)[C@@H](C)CC)[C@@H](C)O [Human Lau-PTEN-PDZ] (HELM PEPTIDE1{[CCCCCCCCCCCC(=O)[*:2]].Q.H.T.Q.I.T.K.V}$$$$V2.0) | –
0.04 | 18.5 | 1110 | 4.20 | 0.16 | 9.89 | 3.77 ± 0.39 | 6.17 | 0.11 | 6.74 | 0.25 | – | – | CCCCCCCCCCCCCC(=O)N[C@@H](CCC(N)=O)C(=O)N[C@@H](Cc1c[nH]cn1)C(=O)N[C@H](C(=O)N[C@@H](CCC(N)=O)C(=O)N[C@H](C(=O)N[C@H](C(=O)N[C@@H](CCCCN)C(=O)N[C@H](C(=O)O)C(C)C)[C@@H](C)O)[C@@H](C)CC)[C@@H](C)O [Human Myr-PTEN-PDZ] (HELM PEPTIDE1{[CCCCCCCCCCCCCC(=O)[*:2]].Q.H.T.Q.I.T.K.V}$$$$V2.0) | k (fast) [1, 7]: 3.05 h⁻¹; t1/2 (h) fast [1, 7]: 0.23 h; t1/2 (min) fast [1, 7]: 13.63 min; k (slow) [1, 8]: 0.0005 h⁻¹; t1/2 (h) slow [1, 8]: 1510 h; t1/2 (min) slow [1, 8]: 90,600 min
0.73 | 0.95 | 57.14 | 3.48 | 0.20 | 11.95 | – | 0.12 | 5.86 | 351.84 | 2.34 | 0.30 | 17.77 | CCCCCCCCCCCC(=O)N[C@@H](CCC(N)=O)C(=O)N[C@@H](Cc1c[nH]cn1)C(=O)N[C@@H](CO)C(=O)N[C@@H](CCC(N)=O)C(=O)N[C@H](C(=O)N[C@H](C(=O)N[C@@H](CCCCN)C(=O)N[C@H](C(=O)O)C(C)C)[C@@H](C)O)[C@@H](C)CC [Mouse Lau-PTEN-PDZ] (HELM PEPTIDE1{[CCCCCCCCCCCC(=O)[*:2]].Q.H.S.Q.I.T.K.V}$$$$V2.0) | Papp A→B at 100 μM ([3]; read-out: Papp0-4h, Experiment 1): 6.28 ± 1.85 ×10⁻⁶ cm/s; half-life at 0.5 mM ([4]; male, CD-1, 50% v/v mouse plasma (K3 EDTA) diluted in PBS, 50% v/v mouse plasma in PBS): 354 min
